Experimental data published in patent US12162850B2, “Formulations” (Betagenon AB, priority 2019, dated 2024).

Key:
[1] = Single dose oral pharmacokinetic studies in rabbits; assay type: in vivo, male New Zealand White rabbits; settings: for Plasma concentration, mean: 90 mg/kg b.w. oral; for AUCextrap / AUC(0-inf) / AUC(0-t) / Cmax / MRT last / Tmax / half-life: 90 mg/kg b.w. oral single dose; for AUC(0-inf) / AUC(0-t) / Cmax / MRT last / Tmax / half-life: male, New Zealand White, plasma, po, 90 mg/kg
Procedure: The studies detailed below (and referred to as Examples 2 to 8) were conducted to provide comparative single dose oral pharmacokinetics data for Compound 1, as well as sodium and potassium salts of that compound, using non-coated and enteric-coated capsules in male New Zealand White rabbits.
Compound 1 was made using the process described in WO 2011/004162 and milled as described for Example 1c. The non-coated or enteric coated gelatin capsules were individually filled with 180 mg of dry-milled Compound 1 together with accompanying excipients as indicated. Both capsule types were filled with Compound 1 together with 1.8 mg of sodium docusate, 0.18 mg of PVP K30 and 9 mg of mannitol.
Similarly, Compound 2, non-coated or enteric coated gelatin capsules were individually filled with 180 mg of dry-milled Compound 2 (as obtained in Example 1f) together with 1.8 mg of sodium docusate, 0.18 mg of PVP K30 and 9 mg of mannitol.
For Compound 3, non-coated or enteric coated gelatin capsules were individually filled with 90 mg of dry-milled Compound 3 (as obtained in Example 1i) together with 0.90 mg of sodium docusate, 0.09 mg of PVP K30 and 4.50 mg of mannitol.
40 mL of the 2% w/v methyl cellulose solution was added to a 250 mL conical flask together with 10 g of 2 mm glass beads, and vigorously stirred. Compound 1 (720 mg) was slowly added to the solution and the mixture was with continuously stirred for 1 h. The homogenate was transferred to separate flask and its pH recorded. The suspension formulation was prepared before administration to the animals.
Adult healthy male New Zealand white rabbits aged approximately 2 to 3 months old were used for experimentation after 7 days of acclimatization.
To dose the filled capsules, a soft plastic dosing tube was used. The filled capsule was inserted into the dosing tube so that the short end of the capsule protrudes slightly from the tip of the tube. The tip of the capsule was dipped in mineral oil to aid swallowing.
To dose the suspension, an infant feeding tube was used. The feeding tube was inserted through the mouth of the rabbit to the oesophagus and the stomach, and ascertained that it has not been placed in the trachea before dosing to the animals. The suspension of the Compound 1 was administered through the feeding tube. After the administration of the suspension, drinking water of approximately 2.0-2.5 mL was administered to flush out the contents in the feeding tube.
The animals were restrained in a rabbit restrainer and blood samples (400-500 μL/time point) were collected via the central ear artery at 0.16, 0.25, 0.50, 1.0, 2.0, 4.0, 6.0, 8.0, 24.0, 48.0 and 72 hours post-dosing. Collected blood specimens were centrifuged at 4000 or 6000 rpm, 4° C. for 10 minutes and plasma samples were separated and stored at −80° C. until analysis.
Concentrations of the analyte of Compound 1 in New Zealand white rabbits was determined using an API 3200 Q-trap LC-MS/MS system.
Chromatographic separation was achieved on Zorbax C18, 50×4.6 mm, 5 μm column with methanol-0.1% formic acid as mobile phase with gradient elution. The flow rate was set at 1.0 mL min^−1. Detection was accomplished by a triple-quadrupole tandem mass spectrometer in multiple-reaction monitoring (MRM) scanning via electrospray ionization source, applied in the positive mode. The optimised mass transition ion-pairs for quantitation were m/z 379.999→125.000 for the compound 1 and m/z 376.165→165.00 for the ISD (Haloperidol). Calibration plots were linear over the range of 11.062 to 20594.820 ng/mL.
The data of plasma concentration to respective time points for the analyte Compound 1 were used for the pharmacokinetic analysis. Pharmacokinetic analysis was performed using non-compartmental analysis (NCA) module of Phoenix WinNonlin 6.3 software to determine the following pharmacokinetic parameters: • Cmax • Tmax • AUC0-t • AUC0-∞ • T1/2 • MRT […]

[2] = Particle size analysis of dry-milled products (laser diffraction, Shimadzu SALD-2300); assay type: physicochemical
Procedure: Milling was performed for Examples 1a to 1c using an air jet mill (Equipment code: CP-AJM-01; Promas engineers) with the following parameters: Micronisation was repeated in all examples by performing the air jet milling for a second time using the same parameters. This allowed the particle size D90 to be reduced to less than 10 μm. [table] Four drops of Tween 20 were added to 25 mL of water and the mixture was sonicated for 3 minutes to form the dispersant solution. 0.05 g of milled material was transferred into a 250 mL glass beaker. 25 mL of the dispersant solution (Tween 20/water mixture) was added to the beaker with continuous swirling for 2 to 3 minutes. The suspension was transferred into the measuring unit and the particle size distribution measurements were conducted in triplicate.

[3] = rabbit, enteric coated capsule, rabbit plasma (Examples 5, 6, 7)
[4] = rabbit, non-coated capsule, rabbit plasma (Examples 2, 3, 4)
[5] = after 1st milling (air jet mill)
[6] = after 2nd milling (air jet mill)

- Plasma concentration, mean ([1]; 0.00 h, enteric coated capsule, rabbit): 0 µg/mL
- Plasma concentration, mean ([1]; 0.00 h, non-coated capsule, rabbit): 0 µg/mL
- Plasma concentration, mean ([1]; 0.16 h, enteric coated capsule, rabbit): 0 µg/mL
- Plasma concentration, mean ([1]; 0.16 h, non-coated capsule, rabbit): 0.169 µg/mL
- Plasma concentration, mean ([1]; 0.25 h, enteric coated capsule, rabbit): 0 µg/mL
- Plasma concentration, mean ([1]; 0.25 h, non-coated capsule, rabbit): 0.255336 µg/mL
- Plasma concentration, mean ([1]; 0.50 h, enteric coated capsule, rabbit): 0 µg/mL
- Plasma concentration, mean ([1]; 0.50 h, non-coated capsule, rabbit): 0.457796 µg/mL
- Plasma concentration, mean ([1]; 1.00 h, enteric coated capsule, rabbit): 0.004721 µg/mL
- Plasma concentration, mean ([1]; 1.00 h, non-coated capsule, rabbit): 2.349624 µg/mL
- Plasma concentration, mean ([1]; 2.00 h, enteric coated capsule, rabbit): 0.093881 µg/mL
- Plasma concentration, mean ([1]; 2.00 h, non-coated capsule, rabbit): 4.456537 µg/mL
- Plasma concentration, mean ([1]; 4.00 h, enteric coated capsule, rabbit): 2.558779 µg/mL
- Plasma concentration, mean ([1]; 4.00 h, non-coated capsule, rabbit): 16.997495 µg/mL
- Plasma concentration, mean ([1]; 6.00 h, enteric coated capsule, rabbit): 7.906592 µg/mL
- Plasma concentration, mean ([1]; 6.00 h, non-coated capsule, rabbit): 21.418736 µg/mL
- Plasma concentration, mean ([1]; 8.00 h, enteric coated capsule, rabbit): 16.147149 µg/mL
- Plasma concentration, mean ([1]; 8.00 h, non-coated capsule, rabbit): 39.754464 µg/mL
- Plasma concentration, mean ([1]; 24.00 h, enteric coated capsule, rabbit): 66.084614 µg/mL
- Plasma concentration, mean ([1]; 24.00 h, non-coated capsule, rabbit): 75.16857 µg/mL
- Plasma concentration, mean ([1]; 48.00 h, enteric coated capsule, rabbit): 79.465599 µg/mL
- Plasma concentration, mean ([1]; 48.00 h, non-coated capsule, rabbit): 77.379051 µg/mL
- Plasma concentration, mean ([1]; 72.00 h, enteric coated capsule, rabbit): 49.785289 µg/mL
- Plasma concentration, mean ([1]; 72.00 h, non-coated capsule, rabbit): 60.164693 µg/mL
- improvement in systemic exposure compared with the milled free base active ingredient ([1]; dry milled, capsules, 90 mg/kg oral, rabbit): more modest improvement
- AUCextrap ([1]; enteric coated capsule, rabbit plasma (Examples 5, 6, 7)): 69.48 ± 19.80%
- AUC(0-inf) [1, 3]: 18600 ± 13800 µg·h/mL
- AUC(0-t) [1, 3]: 3990 ± 43.3 µg·h/mL
- Cmax [1, 3]: 79.5 ± 5.43 µg/mL
- MRT last [1, 3]: 42 ± 0.696 h
- Tmax [1, 3]: 48 h
- half-life [1, 3]: 189 ± 158 h
- AUC(0-inf) [1, 4]: 9370 ± 3380 µg·h/mL
- AUC(0-t) [1, 4]: 4530 ± 589 µg·h/mL
- Cmax [1, 4]: 81.9 ± 10.4 µg/mL
- MRT last [1, 4]: 39.6 ± 3.88 h
- Tmax [1, 4]: 40 ± 13.9 h
- half-life [1, 4]: 71.6 ± 22.6 h
- AUCextrap ([1]; non-coated capsule, rabbit plasma (Examples 2, 3, 4)): 52.23 ± 10.63%
- Particle size distribution D10 [2, 5]: 0.382 μm
- Particle size distribution D50 [2, 5]: 3.64 μm
- Particle size distribution D90 [2, 5]: 26.2 μm
- Particle size distribution D100 [2, 5]: 584 μm
- Particle size distribution D10 [2, 6]: 0.289 μm
- Particle size distribution D50 [2, 6]: 1.57 μm
- Particle size distribution D90 [2, 6]: 11.7 μm
- Particle size distribution D100 [2, 6]: 35.3 μm
- Particle size distribution D10 ([2]; before milling): 0.876 μm
- Particle size distribution D50 ([2]; before milling): 13.4 μm
- Particle size distribution D90 ([2]; before milling): 205 μm
- Particle size distribution D100 ([2]; before milling): 665 μm
Compound: O=C(Nc1nc(=O)n(Cc2ccc(Cl)cc2)s1)c1ccc(Cl)cc1.[K] [Compound 3, 4-chloro-N-[2-[(4-chlorophenyl)methyl]-3-oxo-1,2,4-thiadiazol-5-yl]benzamide potassium salt]
